Measurements reported in ChEMBL document CHEMBL1201862, “PubChem BioAssay data set” (2004).
Active and inactive are the calls of the source.

Columns and labels:
[1] = system: Streptococcus sp. 'group A'; assay: Streptococcus pyogenes SK(-)GAS viability under kanamycin – luminescence, BacTiterGlo, confirmation, counter-screen for streptokinase expression inhibitor project, dose response (AID 1900); type: functional, organism-based
[2] = system: Streptococcus; assay: Luminescence Microorganism-Based Dose Response Follow up to Identify Compounds Cytotoxic to Streptococcus. [Related pubchem assays: 1677 (Project Summary), 1915, 1914, 1902 (Retest at Dose), 1900 (Counter Screen), 1662 (Primary HTS)]; type: functional, organism-based
[3] = biological target: T1, Streptokinase A (Streptococcus pyogenes serotype M1, UniProt P10520); assay: viability-normalized secreted streptokinase activity reduction – plasminogen activation absorbance, OD405, dose response (AID 1914); type: functional, Streptococcus pyogenes M1 GAS;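 also: secreted streptokinase activity via plasminogen activation per viability signal from cell pellet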
T1 sequence (P10520 whole entry): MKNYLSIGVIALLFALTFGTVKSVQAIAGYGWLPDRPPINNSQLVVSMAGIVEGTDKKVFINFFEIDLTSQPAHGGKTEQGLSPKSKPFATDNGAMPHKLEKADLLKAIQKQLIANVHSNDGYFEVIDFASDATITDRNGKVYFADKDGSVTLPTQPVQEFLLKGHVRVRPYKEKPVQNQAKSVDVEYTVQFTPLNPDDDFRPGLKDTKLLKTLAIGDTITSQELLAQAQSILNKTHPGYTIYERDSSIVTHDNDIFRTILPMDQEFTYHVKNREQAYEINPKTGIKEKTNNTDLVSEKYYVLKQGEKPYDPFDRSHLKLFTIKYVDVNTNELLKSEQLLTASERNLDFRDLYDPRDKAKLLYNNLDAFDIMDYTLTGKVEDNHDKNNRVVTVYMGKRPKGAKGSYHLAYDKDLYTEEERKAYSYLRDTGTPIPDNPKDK

[4] = system: Streptococcus; assay: GAS UMAA2166 growth inhibition – luminescence, BacTiterGlo, counter-screen for streptokinase expression inhibitor project, dose response (AID 1915); type: functional, organism-based;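 also: potency for reduction of bacterial viability or growth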
[5] = biological target: Acyl-homoserine lactone acylase PvdQ (Pseudomonas aeruginosa (strain LESB58), UniProt Q9I194); assay: PvdQ acylase enzyme activity blockers – biochemical, fluorescence, plate reader and imaging, cherry-picks, dose response (AID 493231)
[6] = biological target: Cytochrome P450 3A4 (Homo sapiens, UniProt P08684); conditions: Potency;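 also: confirmatory qHTS run detecting inhibitors and substrates of CYP3A4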
[7] = biological target: Cytochrome P450 2C9 (Homo sapiens, UniProt P11712); conditions: Potency
[8] = biological target: Luciferin 4-monooxygenase (Photinus pyralis, UniProt P08659); assay: Counter Screen for Luciferase-based Assay Positives. [Related pubchem assays: 620, 618, 411 ]
[9] = system: HT-1080; assay: HT1080 cell viability loss – fluorescence readout (AID 620); type: functional, cell-based; conditions: Homo sapiens
[10] = system: HEK293; assay: EBV LMP1 TES2 canonical NF-kB signalling blockers – cell-based, HEK293, luciferase, cherry-pick, dose response (AID 588343); type: functional; conditions: Homo sapiens
[11] = biological target: Melanin-concentrating hormone receptor 1 (Homo sapiens, UniProt Q99705); assay: Fluorescence-based counterscreen for antagonists of the G-protein coupled receptor 7 (GPR7): cell-based high throughput dose response assay to identify antagonists of the melanin-concentrating hormone receptor 1 (MCHR1).; type: functional
[12] = luciferase reporter signal suppression in cells – H4 neuroglioma cells, luminescence, dose response (AID 1990); type: functional, cell-based
[13] = luciferase reporter signal reduction – luminescence, H4-C neuroglioblastoma cells, dose response (AID 2458); type: functional, cell-based;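 also: H4 neuroglioblastoma cells stably carrying a luciferase reporter gene fusion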
[14] = cells; type: functional, cell-based
[15] = Luminescence Cell-Based Dose Response HTS to Identify Inhibitors of 5'UTR Stem-Loop Driven Prion Protein mRNA Translation in H4 Neuroglioblastoma Cells. [Related pubchem assays: 1827 (Project Summary), 1813 (Primary HTS)]; type: functional
[16] = alpha-synuclein stem-loop luciferase translation blockers – H4 neuroglioma cells, luminescence, confirmation (AID 1988); type: functional, cell-based
[17] = Luminescence-based counterscreen assay for KLF5 inhibitors: dose response cell-based high throughput screening assay to identify cytotoxic compounds using the IEC-6 intestinal epithelial cell line. [Related pubchem assays: 1700 (Primary screen.), 1834 (Confirmation screen.), 1858 (Summary AID.), 1905 (Counterscreen.)]; type: functional
[18] = alpha-synuclein stem-loop translation blockers – luminescence, H4 neuroglioblastoma cells, dose confirmation, confirmation (AID 2454); type: functional, cell-based;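 also: H4 neuroglioblastoma cells carrying an alpha-synuclein 5'UTR luciferase reporter; potency for inhibition of the luciferase signal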
[19] = system: Jurkat; assay: blockers of NF-kB activation in T cells – Jurkat, luciferase reporter, luminescence, B- and T-cell, dose response (AID 489004); type: functional, cell-based; conditions: Homo sapiens;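 also: NF-kB luciferase reporter Jurkat cells stimulated with PMA plus ionomycin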
[20] = HEK-293T viability loss, compound-treated – cell-based, uHTS hits, cytotoxicity control for B/T-cell NF-kB inhibitor project, dose response (AID 489019); type: functional;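 also: IC50 reflects cytotoxicity as loss of cell viability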
[21] = blockers of HIV-1 envelope-mediated cell-cell fusion – cherry-pick, dose response (AID 652057); type: functional, cell-based
[22] = blockers of HIV-1 ZM109 envelope-driven cell-cell fusion – HeLa effector, CEM target cells, luciferase, cherry-pick, dose response (AID 652058); type: functional, cell-based;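 also: luciferase signal from HIV-1 Env mediated cell-cell fusion of effector and target cells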
[23] = biological target: Paired box protein Pax-8 (Homo sapiens, UniProt Q06710); assay: PAX8 transcriptional activity inhibition in RMG-I – RMG-I cells, luciferase, cherry-pick, dose response (AID 687027); type: functional, cell-based;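 also: luciferase reporter driven by Pax8 target thyroperoxidase promoter measured by SteadyGlo luminescence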
[24] = off-target signal loss in HeLa-CEM21 co-culture – HeLa F-luc CTL cells, cherry-picked, counter-screen for HIV-1 Env fusion inhibitor project, dose response (AID 652040); type: functional, cell-based;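 also: potency for signal decrease marking cytotoxic or nonspecific inhibition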
[25] = HIV-1 AD8 envelope cell-cell fusion blockers – cherry-pick, dose response (AID 652062); type: functional, cell-based;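 also: luciferase signal from cell-cell fusion driven by HIV-1 clade B AD8 Env; potency is for inhibitors of fusion seen as a drop in luminescence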
[26] = system: Vero; assay: Vero 76 cell viability after compound exposure – Vero 76 cells, synthesized analogs, cytotoxicity control for West Nile virus antiviral project, SAR follow-up (AID 2414); type: functional; conditions: Chlorocebus sabaeus
[27] = system: Vero; assay: Vero cell viability after compound exposure – synthesized analogs, set II, cytotoxicity control for West Nile virus antiviral project, SAR follow-up (AID 2402); type: functional; conditions: Chlorocebus sabaeus
[28] = system: Vero; assay: host cell viability loss, Vero E6 – synthesized analogs, cytotoxicity control for West Nile virus antiviral project, SAR follow-up (AID 2244); type: functional; conditions: Chlorocebus sabaeus
[29] = A Cell Based Assay for the Identification of Probe candidate Compounds with Anti- Venezuelan Equine Encephalitis virus. [Related pubchem assays: 2409, 2419, 1621, 2238, 2405, 2024, 2065, 2402, 2414, 1635, 1650, 2244 ]; type: functional

Sequence of Cytochrome P450 3A4 (P08684 whole entry): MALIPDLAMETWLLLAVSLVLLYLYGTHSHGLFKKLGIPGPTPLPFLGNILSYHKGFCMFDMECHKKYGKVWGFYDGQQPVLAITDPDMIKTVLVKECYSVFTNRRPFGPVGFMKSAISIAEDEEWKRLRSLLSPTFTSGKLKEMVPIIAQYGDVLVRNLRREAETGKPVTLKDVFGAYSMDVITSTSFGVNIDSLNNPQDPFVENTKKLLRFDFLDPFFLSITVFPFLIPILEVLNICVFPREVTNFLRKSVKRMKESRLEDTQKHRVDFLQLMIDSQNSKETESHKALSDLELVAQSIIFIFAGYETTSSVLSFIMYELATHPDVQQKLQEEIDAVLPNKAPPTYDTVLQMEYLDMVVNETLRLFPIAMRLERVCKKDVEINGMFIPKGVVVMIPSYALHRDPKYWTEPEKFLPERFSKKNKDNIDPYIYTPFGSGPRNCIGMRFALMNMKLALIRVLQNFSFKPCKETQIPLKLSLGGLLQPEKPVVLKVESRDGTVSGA
Sequence of Paired box protein Pax-8 (Q06710 whole entry, the tested form may be a part): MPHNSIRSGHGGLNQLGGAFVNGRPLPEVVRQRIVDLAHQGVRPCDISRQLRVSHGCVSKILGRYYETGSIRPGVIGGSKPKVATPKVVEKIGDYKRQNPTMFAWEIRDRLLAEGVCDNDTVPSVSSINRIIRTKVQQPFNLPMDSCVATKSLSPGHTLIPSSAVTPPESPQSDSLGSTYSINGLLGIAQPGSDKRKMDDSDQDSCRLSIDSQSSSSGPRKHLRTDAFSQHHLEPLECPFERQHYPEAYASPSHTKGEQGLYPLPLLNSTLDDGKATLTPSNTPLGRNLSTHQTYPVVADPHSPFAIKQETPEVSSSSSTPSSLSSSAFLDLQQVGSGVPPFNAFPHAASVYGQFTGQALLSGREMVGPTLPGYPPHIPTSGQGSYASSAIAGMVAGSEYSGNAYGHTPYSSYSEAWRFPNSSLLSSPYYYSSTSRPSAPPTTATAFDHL
Sequence of Cytochrome P450 2C9 (P11712 whole entry): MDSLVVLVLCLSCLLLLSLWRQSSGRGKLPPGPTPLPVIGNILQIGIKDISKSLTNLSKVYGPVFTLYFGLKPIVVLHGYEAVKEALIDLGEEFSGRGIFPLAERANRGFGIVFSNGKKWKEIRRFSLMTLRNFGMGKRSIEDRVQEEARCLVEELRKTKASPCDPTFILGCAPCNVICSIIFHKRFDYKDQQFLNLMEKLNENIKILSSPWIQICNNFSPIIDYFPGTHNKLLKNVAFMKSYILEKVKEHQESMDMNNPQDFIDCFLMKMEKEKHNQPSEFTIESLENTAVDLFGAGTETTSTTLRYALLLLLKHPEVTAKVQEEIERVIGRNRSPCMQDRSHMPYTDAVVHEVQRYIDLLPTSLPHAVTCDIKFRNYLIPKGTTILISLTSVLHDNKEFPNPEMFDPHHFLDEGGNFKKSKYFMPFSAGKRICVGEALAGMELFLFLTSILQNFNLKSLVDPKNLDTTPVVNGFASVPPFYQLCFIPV
Sequence of Melanin-concentrating hormone receptor 1 (Q99705 whole entry): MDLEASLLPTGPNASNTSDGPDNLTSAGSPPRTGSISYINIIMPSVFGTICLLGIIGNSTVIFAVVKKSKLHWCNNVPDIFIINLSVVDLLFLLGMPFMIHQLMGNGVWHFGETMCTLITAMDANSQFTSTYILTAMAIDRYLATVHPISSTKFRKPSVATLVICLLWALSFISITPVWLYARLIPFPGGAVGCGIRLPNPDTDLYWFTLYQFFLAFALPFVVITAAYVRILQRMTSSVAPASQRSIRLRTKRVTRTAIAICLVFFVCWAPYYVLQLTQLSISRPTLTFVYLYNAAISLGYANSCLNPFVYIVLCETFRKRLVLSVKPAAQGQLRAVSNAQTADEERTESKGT
Sequence of Acyl-homoserine lactone acylase PvdQ (Q9I194 24-193 limits assumed): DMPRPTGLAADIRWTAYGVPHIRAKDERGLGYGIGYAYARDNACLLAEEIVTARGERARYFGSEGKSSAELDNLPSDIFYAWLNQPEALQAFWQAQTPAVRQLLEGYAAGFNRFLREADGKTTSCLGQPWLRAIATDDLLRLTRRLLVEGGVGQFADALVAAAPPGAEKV
Sequence of Acyl-homoserine lactone acylase PvdQ (Q9I194 217-762 limits assumed): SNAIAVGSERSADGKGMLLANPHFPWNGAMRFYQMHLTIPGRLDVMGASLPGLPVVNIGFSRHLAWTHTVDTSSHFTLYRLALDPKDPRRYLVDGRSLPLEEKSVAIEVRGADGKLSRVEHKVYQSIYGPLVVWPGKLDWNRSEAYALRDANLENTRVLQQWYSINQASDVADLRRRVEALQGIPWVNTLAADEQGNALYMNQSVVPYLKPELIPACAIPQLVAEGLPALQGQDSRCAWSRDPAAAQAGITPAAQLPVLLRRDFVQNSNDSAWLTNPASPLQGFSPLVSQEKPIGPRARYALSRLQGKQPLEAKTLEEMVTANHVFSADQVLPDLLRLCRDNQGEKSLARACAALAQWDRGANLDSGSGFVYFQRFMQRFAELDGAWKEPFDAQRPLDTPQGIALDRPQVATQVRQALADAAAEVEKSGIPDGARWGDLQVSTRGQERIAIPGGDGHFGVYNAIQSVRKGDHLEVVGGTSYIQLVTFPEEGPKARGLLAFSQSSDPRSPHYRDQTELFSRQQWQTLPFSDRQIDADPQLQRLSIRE
Sequence of Luciferin 4-monooxygenase (P08659 whole entry): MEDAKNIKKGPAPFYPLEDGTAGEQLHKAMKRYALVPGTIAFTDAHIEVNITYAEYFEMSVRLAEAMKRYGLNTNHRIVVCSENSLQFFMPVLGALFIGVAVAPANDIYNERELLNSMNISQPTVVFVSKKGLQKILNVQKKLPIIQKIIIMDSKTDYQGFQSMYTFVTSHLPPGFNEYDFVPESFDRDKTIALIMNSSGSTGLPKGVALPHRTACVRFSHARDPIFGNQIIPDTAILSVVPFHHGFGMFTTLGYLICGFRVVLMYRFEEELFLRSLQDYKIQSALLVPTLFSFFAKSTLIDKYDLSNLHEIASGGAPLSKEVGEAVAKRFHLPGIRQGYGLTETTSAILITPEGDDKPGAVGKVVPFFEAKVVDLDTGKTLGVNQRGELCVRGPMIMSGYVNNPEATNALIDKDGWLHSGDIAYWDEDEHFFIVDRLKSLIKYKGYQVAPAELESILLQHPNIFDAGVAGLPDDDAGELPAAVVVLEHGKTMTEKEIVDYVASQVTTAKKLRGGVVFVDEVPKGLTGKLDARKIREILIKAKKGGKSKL

For `COc1ccc(-c2csc3ncnc(N4CCN(c5ccccc5Cl)CC4)c23)cc1`, the EC50 [1] was 82.6 µM (active), the EC50 [2] was > 500 µM (not active) and the EC50 [3] was 3.7 µM (active). The EC50 [4] was > 150 µM (not active).

For `O=C(CSCc1ccco1)N1CCc2ccccc21`, the AC50 [5] was 1.9 µM (active).

For `O=c1c(O)c(-c2ccc(O)cc2)oc2ccc(O)cc12`, the AC50 [6] was 12.6 µM (inconclusive) and the AC50 [7] was 10 µM (inconclusive).

In the case of `Cc1ccc(C(=O)Nc2cccc(C(=O)O)c2)cc1S(=O)(=O)N1CCCCC1`, the EC50 [8] is reported as < 0.2 µM (active), the EC50 [9] is reported as > 50 µM (not active) and the AC50 [10] is reported as 3.76 µM (active).

With `Cc1ccc(C2C3=C(NCCN=C3c3ccccc3)C(=O)N2c2ccccc2)cc1` (centres undefined) the IC50 [11] was > 14.6 µM (not active).

In the case of `O=C(NCCc1ccccc1F)c1ccc2c(c1)OCCO2`, the EC50 [12] is reported as 0.16 µM (active), the EC50 [13] is reported as 0.258 µM (active) and the EC50 [14] is reported as 0.316 µM (active). For the same compound, the EC50 [15] was < 0.1 µM (active), the EC50 [16] was 0.113 µM (active) and the IC50 [17] was > 39.8 µM (not active). The EC50 [18] was 0.151 µM (active), the IC50 [19] was 0.77 µM (active) and the IC50 [20] was > 80 µM (inactive). For the same compound, the AC50 [21] was 2.14 µM (active), the AC50 [22] was 8.11 µM (active) and the AC50 [23] was 2.18 µM (active). For the same compound, the AC50 [24] was 3.21 µM (active) and the AC50 [25] was 1.25 µM (active).

In the case of `COc1cccc(NC(=O)CSc2nc3ccccc3c(=O)n2-c2ccc(F)cc2)c1`, the CC50 [26] is reported as > 66.6 µM (active), the CC50 [27] is reported as > 100 µM (active) and the CC50 [28] is reported as > 40 µM (active). For the same compound, the IC50 [29] was 64.2 µM (active).
